One experiment addresses GCN2 kinase (Homo sapiens, UniProt Q9P2K8). Description: GCN2 enzyme inhibition assay (Transcreener ADP2 fluorescence polarization). Type of experiment: biochemical. To be noted: 280 μM ATP. The procedure, abridged:
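Kinase activity is followed as ADP formation, measured by fluorescence polarization, using 4 nM enzyme with 280 μM ATP and 200 μM (RS)7 peptide at pH 7.5 and 25 °C for 1 h. Values come from a non-linear tight-binding fit.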
A general note: Polarisation of emitted light reports the rotation of a fluorescent probe.

Experiment [1] addresses intracellular GCN2 (phosphorylation of the GCN2 substrate eIF2α) (Homo sapiens, UniProt Q9P2K8). In words: GCN2 cellular inhibition assay (AlphaScreen SureFire P-eIF2α Ser51, borrelidin-treated U2OS cells). Type of experiment: cell-based. Summed up:
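U2OS cells, adhered overnight, received compounds in 4-fold serial dilutions from 40 μM final, then 10 μM borrelidin for 1 h at 37 °C. Lysates were read by AlphaScreen for phospho-eIF2α Ser51; percent inhibition was set against borrelidin-only wells.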

[2] abbreviates: Enzyme activity for compounds of Formula IV, Ki(app), 25° C.
Setting [3] is: compounds of Formula IV, biomarker assay, phosphorylated eIF2α Ser51 in borrelidin-treated U2OS cells.
[4] abbreviates: compounds of Formula II, 4 nM GCN2 kinase.
[5] abbreviates: compounds of Formula II, biomarker assay, phosphorylated eIF2α Ser51 in borrelidin-treated U2OS cells.

Each structure is given as a SMILES string. Read-outs that look alike come from different tables or passages of the source.

intracellular GCN2 (phosphorylation of the GCN2 substrate eIF2α), sequence (Q9P2K8 whole entry): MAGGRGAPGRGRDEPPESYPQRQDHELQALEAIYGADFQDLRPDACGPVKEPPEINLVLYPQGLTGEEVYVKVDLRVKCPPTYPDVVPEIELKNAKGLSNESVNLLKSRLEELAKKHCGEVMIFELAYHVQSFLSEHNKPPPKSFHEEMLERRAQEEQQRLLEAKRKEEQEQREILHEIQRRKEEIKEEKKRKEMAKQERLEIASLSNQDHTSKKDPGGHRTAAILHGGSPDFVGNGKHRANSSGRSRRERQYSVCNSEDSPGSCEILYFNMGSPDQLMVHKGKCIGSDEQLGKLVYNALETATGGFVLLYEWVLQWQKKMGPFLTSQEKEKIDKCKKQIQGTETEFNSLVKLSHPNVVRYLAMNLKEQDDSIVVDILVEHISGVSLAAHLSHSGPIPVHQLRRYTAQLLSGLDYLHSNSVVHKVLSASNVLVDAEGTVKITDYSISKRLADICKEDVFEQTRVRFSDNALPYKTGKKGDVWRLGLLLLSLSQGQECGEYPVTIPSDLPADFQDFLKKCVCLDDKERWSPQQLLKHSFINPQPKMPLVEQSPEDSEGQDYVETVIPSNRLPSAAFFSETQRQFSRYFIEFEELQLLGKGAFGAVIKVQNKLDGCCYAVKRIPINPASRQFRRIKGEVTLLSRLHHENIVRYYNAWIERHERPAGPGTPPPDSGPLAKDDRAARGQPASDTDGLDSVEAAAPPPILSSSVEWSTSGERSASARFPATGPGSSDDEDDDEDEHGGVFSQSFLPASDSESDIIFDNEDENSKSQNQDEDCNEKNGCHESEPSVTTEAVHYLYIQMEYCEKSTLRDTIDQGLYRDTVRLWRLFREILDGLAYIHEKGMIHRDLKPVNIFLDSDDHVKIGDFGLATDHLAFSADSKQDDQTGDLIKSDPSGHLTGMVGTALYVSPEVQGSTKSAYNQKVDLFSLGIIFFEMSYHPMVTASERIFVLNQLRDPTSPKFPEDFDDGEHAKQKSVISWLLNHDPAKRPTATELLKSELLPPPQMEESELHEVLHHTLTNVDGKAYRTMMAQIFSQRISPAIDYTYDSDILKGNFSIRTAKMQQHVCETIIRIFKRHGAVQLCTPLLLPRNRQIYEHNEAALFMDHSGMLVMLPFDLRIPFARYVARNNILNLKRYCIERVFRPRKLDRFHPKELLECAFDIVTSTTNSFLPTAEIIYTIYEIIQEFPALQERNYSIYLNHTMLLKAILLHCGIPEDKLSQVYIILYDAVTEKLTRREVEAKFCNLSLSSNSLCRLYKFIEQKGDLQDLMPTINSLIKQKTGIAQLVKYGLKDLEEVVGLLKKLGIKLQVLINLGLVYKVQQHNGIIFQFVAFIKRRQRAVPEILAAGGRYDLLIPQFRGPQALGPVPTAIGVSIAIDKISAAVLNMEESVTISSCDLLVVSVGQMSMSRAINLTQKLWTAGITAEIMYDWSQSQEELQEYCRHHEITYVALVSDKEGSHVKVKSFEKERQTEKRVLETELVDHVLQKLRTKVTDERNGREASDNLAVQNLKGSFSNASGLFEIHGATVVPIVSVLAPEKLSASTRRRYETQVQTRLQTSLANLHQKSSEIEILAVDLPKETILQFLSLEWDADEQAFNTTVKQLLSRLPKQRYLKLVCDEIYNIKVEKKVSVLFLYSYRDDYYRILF
GCN2 kinase, sequence (Q9P2K8 whole entry): as above

As to `CC1C(c2cn[nH]c2)CCCN1c1ccnc(-c2cnc3cnc(C(F)(F)F)cn23)n1` (centres unmarked) [IV-388, 3-(4-(2-Methyl-3-(1H-pyrazol-4-yl)piperidin-1-yl)pyrimidin-2-yl)-6-(trifluoromethyl)imidazo[1,2-a]pyrazine], the Ki at GCN2 kinase (setting [2]) was < 10 nM. Further, in experiment [1] (setting [3]), the IC50 – broadly, the midpoint of a concentration-inhibition curve – was < 500 nM.

On GCN2 kinase (setting [4]), `FC(F)c1ccc2ncc(-c3ccnc(N4CCOC(c5cn[nH]c5)C4)c3)n2n1` (centres unmarked) [II-108, 4-(4-(6-(Difluoromethyl)imidazo[1,2-b]pyridazin-3-yl)pyridin-2-yl)-2-(1H-pyrazol-4-yl)morpholine] came in with a Ki of 10 to 1000 nM. The compound further returned an IC50 in experiment [1] (setting [5]) of 500 to 5000 nM.

For the compound `OC[C@H]1CCCN(c2ccnc(-c3cnc4cnc(C(F)F)cn34)n2)C1` [IV-142, (S)-(1-(2-(6-(Difluoromethyl)imidazo[1,2-a]pyrazin-3-yl)pyrimidin-4-yl)piperidin-3-yl)methanol], the Ki on GCN2 kinase (setting [2]) lay within 100 to 1000 nM. For the same compound, in experiment [1] (setting [3]), the IC50 was > 5000 nM.

In the case of `CC1C(c2cn[nH]c2)NCCN1c1ccnc(-c2cnc3cnc(C(F)F)cn23)n1` (centres unmarked) [IV-454, 6-(Difluoromethyl)-3-(4-(2-methyl-3-(1H-pyrazol-4-yl)piperazin-1-yl)pyrimidin-2-yl)imidazo[1,2-a]pyrazine], at GCN2 kinase (setting [2]), the Ki fell in the range of 10 to 100 nM. Also, the IC50 in experiment [1] (setting [3]) lay within 500 to 5000 nM.

The compound `CS(=N)(=O)C1CCCN(c2cc(-c3cnc4ccc(C(F)F)nn34)ncn2)C1` (centres unmarked) [II-522, (1-(6-(6-(Difluoromethyl)imidazo[1,2-b]pyridazin-3-yl)pyrimidin-4-yl)piperidin-3-yl)(imino)(methyl)-λ^6-sulfanone] gave a Ki on GCN2 kinase (setting [4]) of 10 to 1000 nM. In experiment [1] (setting [5]), the 50% inhibitory concentration (IC50) lay within 500 to 5000 nM.

With `CS(=O)(=O)N1CCN2CCN(c3cc(-c4cnc5ccc(C(F)F)nn45)ccn3)CC2C1` (centres unmarked) [II-37, 2-(4-(6-(Difluoromethyl)imidazo[1,2-b]pyridazin-3-yl)pyridin-2-yl)-8-(methylsulfonyl)octahydro-1H-pyrazino[1,2-a]pyrazine], the Ki at GCN2 kinase (setting [4]) is 10 to 1000 nM. In addition, in experiment [1] (setting [5]), the IC50 is 500 to 5000 nM.

As to `CC(=O)N1CCN(c2cccc(-c3cnc4ccc(C(F)F)nn34)c2)CC1` [II-150, 1-(4-(3-(6-(Difluoromethyl)imidazo[1,2-b]pyridazin-3-yl)phenyl)piperazin-1-yl)ethanone], on GCN2 kinase (setting [4]), the Ki fell in the range of 10 to 1000 nM. The same compound displayed an IC50 in experiment [1] (setting [5]) of 500 to 5000 nM.

For the compound `CS(C)(=O)=NC1CC(C(F)(F)F)CN(c2cc(-c3cnc4ccc(C(F)F)nn34)ncn2)C1` (centres unmarked) [II-695, ((1-(6-(6-(Difluoromethyl)imidazo[1,2-b]pyridazin-3-yl)pyrimidin-4-yl)-5-(trifluoromethyl)piperidin-3-yl)imino)dimethyl-λ^6-sulfanone], the Ki at GCN2 kinase (setting [4]) was < 10 nM. This compound also returned an IC50 in experiment [1] (setting [5]) of 500 to 5000 nM.

Consider `CN(C)CC(=O)N(CC1CCCN(c2cc(-c3cnc4ccc(C(F)F)nn34)ncn2)C1)S(C)(=O)=O` (centres unmarked) [II-456, N-((1-(6-(6-(Difluoromethyl)imidazo[1,2-b]pyridazin-3-yl)pyrimidin-4-yl)piperidin-3-yl)methyl)-2-(dimethylamino)-N-(methylsulfonyl)acetamide], for which, at GCN2 kinase (setting [4]), the Ki fell in the range of 10 to 1000 nM. Further, in experiment [1] (setting [5]), the IC50 was < 500 nM.

Take `CC1C(CO)CCCN1c1cc(-c2cnc3ccc(C(F)F)nn23)ncn1` (single isomer, unassigned) [II-393, (1-(6-(6-(Difluoromethyl)imidazo[1,2-b]pyridazin-3-yl)pyrimidin-4-yl)-2-methylpiperidin-3-yl)methanol]: on GCN2 kinase (setting [4]), the Ki is 10 to 1000 nM. In experiment [1] (setting [5]), the IC50 is > 5000 nM.

For the compound `NC(=O)NCC1CCCN(c2ccnc(-c3cnc4cnc(C(F)F)cn34)n2)C1` (centres unmarked) [IV-41, 1-((1-(2-(6-(Difluoromethyl)imidazo[1,2-a]pyrazin-3-yl)pyrimidin-4-yl)piperidin-3-yl)methyl)urea], at GCN2 kinase (setting [2]), the Ki was 100 to 1000 nM. The IC50 in experiment [1] (setting [3]) is > 5000 nM.

Compound `OCCC1CCCN(c2ccnc(-c3cnc4cnc(C(F)(F)F)cn34)n2)C1` (centres unmarked) [IV-444, 2-(1-(2-(6-(Trifluoromethyl)imidazo[1,2-a]pyrazin-3-yl)pyrimidin-4-yl)piperidin-3-yl)ethan-1-ol] showed a Ki on GCN2 kinase (setting [2]) of 100 to 1000 nM. For the same compound, the IC50 in experiment [1] (setting [3]) was > 5000 nM.

For the compound `C[C@@H]1C[C@@H](c2c[nH]nc2F)CN(c2ccnc(-c3cnc4cnc(C(F)(F)F)cn34)n2)C1` [IV-765], the IC50 at GCN2 kinase (compounds of Formula IV, 4 nM GCN2 kinase) is 10 to 1000 nM; in experiment [1] (setting [3]) it was < 500 nM.

`CC1CC(CNS(C)(=O)=O)CN(c2cc(-c3cnc4ccc(C(F)F)nn34)ncn2)C1` (single isomer, unassigned) [II-436, N-((1-(6-(6-(Difluoromethyl)imidazo[1,2-b]pyridazin-3-yl)pyrimidin-4-yl)-5-methylpiperidin-3-yl)methyl)methanesulfonamide]: on GCN2 kinase (setting [4]), the Ki was 10 to 1000 nM. The IC50 in experiment [1] (setting [5]) fell in the range of 500 to 5000 nM.

`CS(=O)(=O)NCC1CN(c2cc(-c3cnc4ccc(C(F)F)nn34)ncn2)CC(C2CC2)O1` (centres unmarked) [II-443, N-((6-Cyclopropyl-4-(6-(6-(difluoromethyl)imidazo[1,2-b]pyridazin-3-yl)pyrimidin-4-yl)morpholin-2-yl)methyl)methanesulfonamide]: the Ki on GCN2 kinase (setting [4]) is < 10 nM. For the same compound, the IC50 in experiment [1] (setting [5]) was < 500 nM.

In turn, `FC(F)(F)c1cn2c(-c3nccc(N4CCC(c5cn[nH]c5)C4)n3)cnc2s1` (centres unmarked) [Compound V-7, 5-[4-[3-(1H-Pyrazol-4-yl)pyrrolidin-1-yl]pyrimidin-2-yl]-2-(trifluoromethyl)imidazo[2,1-b]thiazole] came in with a Ki at GCN2 kinase (compounds of Formula V, 4 nM GCN2 kinase) of 10 to 100 nM. For the same compound, in experiment [1] (compounds of Formula V, U2OS cells, 10 μM borrelidin, 1 h, read-out: GCN2 Biomarker (IC50)), the IC50 lay in the range of 500 to 5000 nM.

The compound `CCn1cc(-c2ccnc(-c3cnc4cnc(C(F)F)cn34)n2)cn1` [IV-154, 6-(Difluoromethyl)-3-(4-(1-ethyl-1H-pyrazol-4-yl)pyrimidin-2-yl)imidazo[1,2-a]pyrazine] showed a Ki at GCN2 kinase (setting [2]) of 100 to 1000 nM. The concentration for half-maximal inhibition (IC50) in experiment [1] (setting [3]) is > 5000 nM.

`CC1C(CNS(C)(=O)=O)OCCN1c1cc(-c2cnc3ccc(C(F)F)nn23)ncn1` (centres unmarked) [II-346, N-((4-(6-(6-(Difluoromethyl)imidazo[1,2-b]pyridazin-3-yl)pyrimidin-4-yl)-3-methylmorpholin-2-yl)methyl)methanesulfonamide] displayed a Ki on GCN2 kinase (setting [4]) of 10 to 1000 nM. In experiment [1] (setting [5]), the IC50 is > 5000 nM.

With `CC1CN(c2ccnc(-c3cnc4cnc(C(F)(F)F)cn34)n2)CC(c2cn[nH]c2)N1` (centres unmarked) [IV-189, 3-(4-(3-Methyl-5-(1H-pyrazol-4-yl)piperazin-1-yl)pyrimidin-2-yl)-6-(trifluoromethyl)imidazo[1,2-a]pyrazine], the Ki on GCN2 kinase (setting [2]) was 10 to 100 nM. This compound had an IC50 in experiment [1] (setting [3]) of 500 to 5000 nM.

In the case of `CS(=O)(=O)NCC1CN(c2cc(-c3cnc4ccc(C(F)F)nn34)ncn2)CC2(CC2)O1` (centres unmarked) [II-384, N-((7-(6-(6-(Difluoromethyl)imidazo[1,2-b]pyridazin-3-yl)pyrimidin-4-yl)-4-oxa-7-azaspiro[2.5]octan-5-yl)methyl)methanesulfonamide], the Ki at GCN2 kinase (setting [4]) is < 10 nM. The IC50 in experiment [1] (setting [5]) was < 500 nM.

In the case of `CC1C(CNS(C)(=O)=O)CC(F)(F)CN1c1cc(-c2cnc3ccc(C(F)F)nn23)ncn1` (centres unmarked) [II-329, N-((1-(6-(6-(Difluoromethyl)imidazo[1,2-b]pyridazin-3-yl)pyrimidin-4-yl)-5,5-difluoro-2-methylpiperidin-3-yl)methyl)methanesulfonamide], the Ki at GCN2 kinase (setting [4]) is < 10 nM. Also, in experiment [1] (setting [5]), the IC50 is < 500 nM.

As to `CS(=O)(=O)N1CC2(CCCN(c3cncc(-c4cnc5ccc(C(F)F)nn45)c3)C2)C1` [II-101, 6-(Difluoromethyl)-3-(5-(2-(methylsulfonyl)-2,6-diazaspiro[3.5]nonan-6-yl)pyridin-3-yl)imidazo[1,2-b]pyridazine], the Ki at GCN2 kinase (setting [4]) is < 10 nM. The compound also displayed a half-inhibitory concentration (IC50) in experiment [1] (setting [5]) of 500 to 5000 nM.

Take `CC1CN(c2cc(-c3cnc4ccc(C(F)(F)F)nn34)ncn2)C(C)C(c2cn[nH]c2)N1` (centres unmarked) [II-698]: the Ki at GCN2 kinase (setting [4]) is < 10 nM. Besides, the half-inhibitory concentration (IC50) in experiment [1] (setting [5]) lay in the range of 500 to 5000 nM.

`CC1CN(c2ccnc(-c3cnc4cnc(C(F)(F)F)cn34)n2)C(C)C(c2c[nH]cn2)O1` (centres unmarked) [IV-525, 2-(1H-Imidazol-4-yl)-3,6-dimethyl-4-(2-(6-(trifluoromethyl)imidazo[1,2-a]pyrazin-3-yl)pyrimidin-4-yl)morpholine]: on GCN2 kinase (setting [2]), the Ki is < 10 nM. In addition, in experiment [1] (setting [3]), the IC50 was 500 to 5000 nM.

`CC1CN(c2ccnc(-c3cnc4cnc(C(F)F)cn34)n2)CC(C)O1` (centres unmarked) [IV-119, 4-(2-(6-(Difluoromethyl)imidazo[1,2-a]pyrazin-3-yl)pyrimidin-4-yl)-2,6-dimethylmorpholine] returned a Ki at GCN2 kinase (setting [2]) of 100 to 1000 nM. Moreover, the IC50 in experiment [1] (setting [3]) was > 5000 nM.

In the case of `CS(=O)(=O)NCC1CCCN(c2cc(-c3cnc4ccc(C(F)F)nn34)cc(C#N)n2)C1` (centres unmarked) [II-130, N-((1-(6-Cyano-4-(6-(difluoromethyl)imidazo[1,2-b]pyridazin-3-yl)pyridin-2-yl)piperidin-3-yl)methyl)methanesulfonamide], at GCN2 kinase (setting [4]), the Ki was in the range of 10 to 1000 nM. Further, the IC50 in experiment [1] (setting [5]) is > 5000 nM.

With `FC(F)(F)c1cn2c(-c3nccc(N4CCCC(c5cncs5)C4)n3)cnc2cn1` (centres unmarked) [IV-691, 5-(1-(2-(6-(Trifluoromethyl)imidazo[1,2-a]pyrazin-3-yl)pyrimidin-4-yl)piperidin-3-yl)thiazole], the Ki at GCN2 kinase (setting [2]) is 10 to 100 nM. For the same compound, the half-inhibitory concentration (IC50) in experiment [1] (setting [3]) was in the range of 500 to 5000 nM.

`CS(=O)(=O)NC[C@@H]1CN(c2cc(-c3cnc4ccc(C(F)(F)F)nn34)ccn2)CCO1` [II-224, (S)—N-((4-(4-(6-(Trifluoromethyl)imidazo[1,2-b]pyridazin-3-yl)pyridin-2-yl)morpholin-2-yl)methyl)methanesulfonamide] displayed a Ki on GCN2 kinase (setting [4]) of 10 to 1000 nM. The compound also displayed an IC50 in experiment [1] (setting [5]) of 500 to 5000 nM.

The values above are taken from patent publication US10988477B2 (Merck Patent GmbH, priority 2018, dated 2021).
